Patent US9670227B2, “Thienopyrimidine derivatives, a process for their preparation and pharmaceutical compositions containing them” (LES LABORATOIRES SERVIER, priority 2013, dated 2017)

Tests used:
[1] = system: H929 multiple myeloma tumour line; assay: In vitro cytotoxicity, Microculture Tetrazolium Assay; type: cell-based; conditions: Homo sapiens, NCI-H929, 48 h, H929 cells, 48 hours exposure, MTT; read-out: IC50 (μM) MTT H929
Description: The cytotoxicity studies were carried out on the H929 multiple myeloma tumour line.
The cells are distributed onto microplates and exposed to the test compounds for 48 hours.

Mcl-1 protein = Mcl-1 protein (UniProtKB primary accession number: Q07820) (Homo sapiens, UniProt Q07820); assay: Inhibition of Mcl-1 by fluorescence polarisation, Method 1; type: binding; conditions: fluorescence polarisation test; Method 2 values are underlined in the patent (underlining not visible here); read-out: IC50 (M) Mcl-1 FP
Summary of the method: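 FP readout of relative binding potency. Mcl-1 5 nM final, fluorescein-labelled ligand 1 nM final; buffer 10 mM HEPES, 150 mM NaCl, 0.05% Tween 20, pH 7.4; 11-pt dilution series, 5% DMSO final.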

Chain of Mcl-1 protein (Q07820 whole entry): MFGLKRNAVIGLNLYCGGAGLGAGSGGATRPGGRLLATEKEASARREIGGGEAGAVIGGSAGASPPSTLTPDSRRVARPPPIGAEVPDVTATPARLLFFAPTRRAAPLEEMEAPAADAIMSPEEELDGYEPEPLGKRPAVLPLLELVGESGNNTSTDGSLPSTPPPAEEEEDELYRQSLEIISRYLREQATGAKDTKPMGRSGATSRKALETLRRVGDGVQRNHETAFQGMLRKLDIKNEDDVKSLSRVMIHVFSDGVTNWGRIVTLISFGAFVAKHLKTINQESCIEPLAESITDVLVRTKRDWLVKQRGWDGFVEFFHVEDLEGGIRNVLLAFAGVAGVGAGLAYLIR

`Cc1c(-c2c(-c3ccc(F)o3)sc3ncnc(OC(Cc4ccccc4OCc4cncnc4)C(=O)O)c23)ccc(OCCN2CCN(C)CC2)c1Cl` [Example 190, (2R)-2-{[(5Sa)-5-{3-chloro-2-methyl-4-[2-(4-methylpiperazin-1-yl)ethoxy]phenyl}-6-(5-fluorofuran-2-yl)thieno[2,3-d]pyrimidin-4-yl]oxy}-3-[2-(pyrimidin-5-ylmethoxy)phenyl]propanoic acid] gave an IC50 [1] of 0.037 µM and an IC50 (Mcl-1 protein) of 7.5e-09 M.

`Cc1c(-c2c(-c3ccc(F)o3)sc3ncnc(OC(Cc4ccccc4OCc4cocn4)C(=O)O)c23)ccc(OCCN2CCN(C)CC2)c1Cl` [Example 191, (2R)-2-{[(5Sa)-5-{3-chloro-2-methyl-4-[2-(4-methylpiperazin-1-yl)ethoxy]phenyl}-6-(5-fluorofuran-2-yl)thieno[2,3-d]pyrimidin-4-yl]oxy}-3-[2-(1,3-oxazol-4-ylmethoxy)phenyl]propanoic acid] was tested, and the IC50 [1] was 0.063 µM and the IC50 (Mcl-1 protein) was 6.5e-09 M.

Work on `Cc1c(-c2c(-c3ccc(F)o3)sc3ncnc(OC(Cc4ccccc4OCCN(C)C)C(=O)O)c23)ccc(OCCN2CCN(C)CC2)c1Cl` [Example 192, (2R)-2-{[(5Sa)-5-{3-chloro-2-methyl-4-[2-(4-methylpiperazin-1-yl)ethoxy]phenyl}-6-(5-fluorofuran-2-yl)thieno[2,3-d]pyrimidin-4-yl]oxy}-3-{2-[2-(dimethylamino)ethoxy]phenyl}propanoic acid] yielded an IC50 [1] of 0.848 µM and an IC50 (Mcl-1 protein) of 7.7e-09 M.

`Cc1c(-c2c(-c3ccc(F)o3)sc3ncnc(OC(Cc4ccccc4OCCO)C(=O)O)c23)ccc(OCCN2CCN(C)CC2)c1Cl` [Example 193, (2R)-2-{[(5Sa)-5-{3-chloro-2-methyl-4-[2-(4-methylpiperazin-1-yl)ethoxy]phenyl}-6-(5-fluorofuran-2-yl)thieno[2,3-d]pyrimidin-4-yl]oxy}-3-[2-(2-hydroxyethoxy)phenyl]propanoic acid] was tested, and the IC50 [1] was 0.116 µM and the IC50 (Mcl-1 protein) was 5.4e-09 M.

`COCCOc1ccccc1CC(Oc1ncnc2sc(-c3ccc(F)o3)c(-c3ccc(OCCN4CCN(C)CC4)c(Cl)c3C)c12)C(=O)O` [Example 194, (2R)-2-{[(5Sa)-5-{3-chloro-2-methyl-4-[2-(4-methylpiperazin-1-yl)ethoxy]phenyl}-6-(5-fluorofuran-2-yl)thieno[2,3-d]pyrimidin-4-yl]oxy}-3-[2-(2-methoxyethoxy)phenyl]propanoic acid] showed an IC50 [1] of 0.058 µM and an IC50 (Mcl-1 protein) of 8e-09 M.

`Cc1c(-c2c(-c3ccc(F)o3)sc3ncnc(OC(Cc4ccccc4OCCOCCO)C(=O)O)c23)ccc(OCCN2CCN(C)CC2)c1Cl` [Example 195, (2R)-2-{[(5Sa)-5-{3-chloro-2-methyl-4-[2-(4-methylpiperazin-1-yl)ethoxy]phenyl}-6-(5-fluorofuran-2-yl)thieno[2,3-d]pyrimidin-4-yl]oxy}-3-{2-[2-(2-hydroxyethoxy)ethoxy]phenyl}propanoic acid] gave an IC50 [1] of 0.311 µM and an IC50 (Mcl-1 protein) of 5.5e-09 M.

`COCCOCCOc1ccccc1CC(Oc1ncnc2sc(-c3ccc(F)o3)c(-c3ccc(OCCN4CCN(C)CC4)c(Cl)c3C)c12)C(=O)O` [Example 196, (2R)-2-{[(5Sa)-5-{3-chloro-2-methyl-4-[2-(4-methylpiperazin-1-yl)ethoxy]phenyl}-6-(5-fluorofuran-2-yl)thieno[2,3-d]pyrimidin-4-yl]oxy}-3-{2-[2-(2-methoxyethoxy)ethoxy]phenyl}propanoic acid] was tested, and the IC50 [1] was 0.076 µM and the IC50 (Mcl-1 protein) was 5.6e-09 M.

`COCCOCCOCCOc1ccccc1CC(Oc1ncnc2sc(-c3ccc(F)o3)c(-c3ccc(OCCN4CCN(C)CC4)c(Cl)c3C)c12)C(=O)O` [Example 197, (2R)-2-{[(5Sa)-5-{3-chloro-2-methyl-4-[2-(4-methylpiperazin-1-yl)ethoxy]phenyl}-6-(5-fluorofuran-2-yl)thieno[2,3-d]pyrimidin-4-yl]oxy}-3-(2-{2-[2-(2-methoxyethoxy)ethoxy]ethoxy}phenyl)propanoic acid] gave an IC50 [1] of 0.07 µM and an IC50 (Mcl-1 protein) of 5.4e-09 M.
